Laboratory results from US20250100996A1, “HETEROCYCLOALKYL AND HETEROARYL COMPOUNDS AND PHARMACEUTICAL COMPOSITIONS THAT MODULATE IKZF2” (Plexium, Inc., priority 2021, published 2025).
pEC50: −log10 of the molar value.

Columns and labels:
[1] = molecular target: T1, human E3 ligase component cereblon (CRBN) (Homo sapiens, UniProt Q96SW2); assay: Cereblon (CRBN) target engagement, NanoBRET TE Intracellular E3 Ligase Assay in transfected HEK-293T cells; settings: read-out: CRBN Binding EC50
T1 construct: host or cells: HEK293T
T1 sequence (Q96SW2 whole entry): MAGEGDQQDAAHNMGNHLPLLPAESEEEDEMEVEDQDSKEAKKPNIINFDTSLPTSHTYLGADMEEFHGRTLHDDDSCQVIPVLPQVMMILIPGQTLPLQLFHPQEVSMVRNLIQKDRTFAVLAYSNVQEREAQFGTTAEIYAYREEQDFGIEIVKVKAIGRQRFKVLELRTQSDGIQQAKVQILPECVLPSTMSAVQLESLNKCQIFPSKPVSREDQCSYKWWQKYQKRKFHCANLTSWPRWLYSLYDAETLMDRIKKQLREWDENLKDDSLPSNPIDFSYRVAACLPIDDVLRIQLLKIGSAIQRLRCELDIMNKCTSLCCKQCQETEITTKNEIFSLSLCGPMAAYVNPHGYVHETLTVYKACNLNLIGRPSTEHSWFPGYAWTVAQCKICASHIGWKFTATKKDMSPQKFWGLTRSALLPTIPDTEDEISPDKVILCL
T1 sequence (Q16531 whole entry partner): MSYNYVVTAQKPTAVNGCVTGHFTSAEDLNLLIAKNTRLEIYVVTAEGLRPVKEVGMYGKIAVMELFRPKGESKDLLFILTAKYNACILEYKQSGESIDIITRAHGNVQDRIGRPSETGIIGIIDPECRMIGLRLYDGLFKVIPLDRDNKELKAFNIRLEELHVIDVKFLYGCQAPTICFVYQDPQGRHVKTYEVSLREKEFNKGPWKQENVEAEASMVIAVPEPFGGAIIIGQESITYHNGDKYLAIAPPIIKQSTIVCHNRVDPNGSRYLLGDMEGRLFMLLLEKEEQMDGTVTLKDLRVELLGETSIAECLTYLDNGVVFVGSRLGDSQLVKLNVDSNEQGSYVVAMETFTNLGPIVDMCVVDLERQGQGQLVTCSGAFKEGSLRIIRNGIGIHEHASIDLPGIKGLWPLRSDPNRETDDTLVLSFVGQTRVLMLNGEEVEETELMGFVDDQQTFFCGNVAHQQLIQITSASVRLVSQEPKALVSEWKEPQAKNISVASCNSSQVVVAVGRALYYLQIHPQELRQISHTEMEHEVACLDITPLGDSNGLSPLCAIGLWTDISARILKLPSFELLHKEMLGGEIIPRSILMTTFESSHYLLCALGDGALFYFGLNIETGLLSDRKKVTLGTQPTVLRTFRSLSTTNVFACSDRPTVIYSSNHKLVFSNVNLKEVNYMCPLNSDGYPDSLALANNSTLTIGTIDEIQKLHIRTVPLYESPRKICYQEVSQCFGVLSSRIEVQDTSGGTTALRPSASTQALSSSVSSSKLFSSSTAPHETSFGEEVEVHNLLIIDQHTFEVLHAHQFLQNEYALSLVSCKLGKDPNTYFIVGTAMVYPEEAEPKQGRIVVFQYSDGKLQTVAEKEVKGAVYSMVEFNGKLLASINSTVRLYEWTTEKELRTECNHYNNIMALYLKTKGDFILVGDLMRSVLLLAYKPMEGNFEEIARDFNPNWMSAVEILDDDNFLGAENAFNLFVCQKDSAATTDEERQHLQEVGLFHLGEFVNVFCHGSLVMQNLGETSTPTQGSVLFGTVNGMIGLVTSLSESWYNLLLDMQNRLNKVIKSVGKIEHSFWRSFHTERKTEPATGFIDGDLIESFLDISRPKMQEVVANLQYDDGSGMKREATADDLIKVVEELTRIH
Experimental: HEK293T cells were harvested ca. 75% confluent with trypsin and plated (500,000 cells/well) in a 6-well tissue culture plate in 2 mL of Dulbecco's Modified Eagle Medium (DMEM)^+10% Fetal Bovine Serum (FBS) and incubated overnight at 37° C.
The NanoLuc-CRBN fusion vector (Nluc-CRBN; Promega) contains the coding region of human E3 ligase component cereblon (CRBN) fused to the C-terminus of the NanoLuc luciferase coding region. A mixture of 10 ng Nluc-CRBN and 990 ng DDB1 Expression Vector (Promega) was added to 125 μL Opti-Minimum Essential Medium (Opti-MEM™; Thermo Fisher) along with […] P3000 reagent (Thermo Fisher) in a 1.5 mL epppendorf tube. This solution was added to Lipofectamine 3000 transfection reagent (5 μL; Thermo Fisher) in Opti-MEM (125 μL), mixed well, and incubated for 15 minutes at room temperature. The transfection mixture was added dropwise to cells and incubated overnight at 37° C., 5% CO2. Following transfection, cells were washed once with PBS, and trypsin (250 μL) was added and incubated 30-45 see to dislodge cells. Complete media (2 mL) was added to resuspend cells to form a single cell suspension. Cells were centrifuged at 320×g for 5 min at room temperature, the supernatant was removed, and the cell pellet resuspended in Opti-MEM (3 mL; wash step repeated ×2). After final resuspension in 5 mL Opti-MEM, cells were counted and resuspended at 200,000 cells/mL in Opti-MEM.
Cereblon target engagement was monitored by Bioluminescence Resonance Energy Transfer (BRET) in transfected HEK-293T cells using the NanoBRET TE Intracellular E3 Ligase Assay (Promega). Briefly, 384-well plates (white opaque plates, Corning 3574, low binding surface) were seeded with transfected HEK-293T cells (38 μL/well). 2 μL of 10 μM CRBN tracer (diluted 1:5 in Tracer Dilution Buffer) was added to each well. Plates were centrifuged at 320×g for 1 min at room temperature. Test compounds were added in a 11-point dilution series (typically 10 μM to 100 pM) using a TECAN D300e Digital Dispenser. Plates were shaken for 2 minutes on a microplate shaker to mix compounds. Plates were centrifuged at 320×g for 1 min at room temperature, and subsequently incubated for 2 hours at 37° C.
After incubation, plates were allowed to cool to room temperature for 15 minutes. 20 μL of 3× Complete NanoBRET™ Nano-Glo® Substrate plus Inhibitor Solution (Promega, 1:166 Substrate and 1:500 dilution of Extracellular NanoLuc® Inhibitor diluted in Opti-MEM) were added to each well. Plates were incubated with shaking at room temperature for 3 minutes covered with foil. Plates were read on a CLARIOstar microplate reader (BMG LabTech), measuring at 450 nm (donor emission) and 610 nm (acceptor emission). The IC50 values were determined by regression to best fit four-parameter logistic curves using GraphPad Prism.

IKZF2 (Helios) [2] = molecular target: T2, IKZF2 (Helios) (Homo sapiens, UniProt Q9UKS7); assay: IKZF2 reporter degradation assay (HEK 293T IKZF2-mNeonGreen reporter cell line); format: cell-based; settings: HEK 293T IKZF2-mNeonGreen reporter, 24 hours incubation
T2 construct: Leu-Asp junction (codons ctcgac before the linker); mScarlet (behind P2A) (C, cleaved yes); expressed in transfected cells
T2 sequence (Q9UKS7 whole entry): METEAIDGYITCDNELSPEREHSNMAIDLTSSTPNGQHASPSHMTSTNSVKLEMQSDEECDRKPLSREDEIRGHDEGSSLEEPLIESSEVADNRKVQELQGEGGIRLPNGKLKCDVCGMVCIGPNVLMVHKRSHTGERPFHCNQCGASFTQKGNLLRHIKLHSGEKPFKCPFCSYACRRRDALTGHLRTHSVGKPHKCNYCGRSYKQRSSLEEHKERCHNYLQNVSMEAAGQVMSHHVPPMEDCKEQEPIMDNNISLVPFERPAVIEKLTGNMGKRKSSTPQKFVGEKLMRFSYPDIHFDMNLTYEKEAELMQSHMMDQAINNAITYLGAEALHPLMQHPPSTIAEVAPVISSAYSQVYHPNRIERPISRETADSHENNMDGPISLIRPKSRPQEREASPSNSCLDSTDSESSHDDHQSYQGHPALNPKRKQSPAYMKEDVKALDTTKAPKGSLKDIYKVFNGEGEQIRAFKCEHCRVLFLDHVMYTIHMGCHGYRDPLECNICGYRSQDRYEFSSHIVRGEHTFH
T2 sequence (Q96SW2 whole entry, further chain): as the sequence (Q96SW2 whole entry) above
T2 sequence (Q16531 whole entry partner): as the sequence (Q16531 whole entry partner) above
Text: (§1) Polycistronic plasmids were constructed for the mammalian expression of fluorescent reporter fusions of human transcription factors IKZF1 (Ikaros), IKZF2 (Helios), and IKZF3 (Aiolos). The respective protein sequences had their C-terminal end joined to a GGGGS linker repeated three times followed by mNeonGreen, P2A sequence, and mScarlet. The DNA sequences of the open reading frames are as follows:
(§2) IKZF1, IKZF2, and IKZF3 constructs were cloned into the UCOE Hygromycin expression vectors (Millipore Sigma). Reporter constructs were transfected using cationic lipid reagents into adherent HEK 293T cells and stable integrants were selected by treatment with 200 μg/mL hygromycin B. Clonal populations were obtained from the population of stable integrants either by limiting dilution or fluorescence activated cell sorting.
(§3) The clonal stable cell lines were maintained under constant 200 μg/mL hygromycin B selection while being passaged for use in the degradation assays. […] The fluorescence intensity of the IKZF1/2/3-mNeonGreen (FITC channel) and mScarlet (PE channel) reporters were routinely analyzed by flow cytometry to confirm consistent expression levels between experiments.
(§4) The IKZF1/IKZF2/IKZF3 degradation assays were carried out by harvesting the HEK 293T reporter cell lines and resuspending the cells in media formulated for reduced background fluorescence (FluoroBrite; Thermo Fisher). The respective cell lines were seeded at a density of 4000 cells/well into black-walled 384-well optical grade assay tissue culture plates. The cells were incubated overnight at 37° C. to allow for attachment to the assay plate. Dilutions of the compounds were prepared in DMSO from 10 mM compound stocks. The assay plates were treated with appropriate concentrations of the compounds by dispensing the DMSO dilutions in quadruplicate wells with an upper limit of 0.5% final DMSO.
(§5) After 24 hours incubation with the compounds, the assay plates were imaged on an ImageXpress Pico microscopy system (cells maintained at 37° C. during imaging) to obtain the fluorescent readouts. The assay plates were imaged in the FITC and Tetramethylrhodamine (TRITC) channels to obtain the mNeonGreen fluorescence intensity (reporter degradation data) and mScarlet fluorescence intensity (for cell segmentation). 293T-IKZF1 and 293T-IKZF3 reporter cell lines were imaged with exposures of 500 milliseconds (ms) for both FITC and TRITC channels, while the 293T-IKZF2 reporter cell line was imaged with exposures of 1000 ms for FITC and 1250 ms for TRITC. The resulting data was analyzed with Cell Reporter Xpress software using the 2-channel cell scoring analysis with a “percent positive” readout. The TRITC channel was selected for the “nuclei” segmentation with a threshold of 20 while the FITC channel was selected for the “Marker 1” segmentation and a threshold of 100 for the IKZF1 and IKZF3 reporter lines. […] The minimum segmentation width was set to 6 micrometers and the maximum segmentation width was set to 15 micrometers for all cell lines. The DC50 calculations were determined by regression to best fit four-parameter logistic curves using GraphPad Prism.

IKZF2 (Helios) [3] = molecular target: T3, IKZF2 (Helios) (Homo sapiens, UniProt Q96SW2+Q9UKS7); assay: as above; format: cell-based; settings: @ 1 μM, HEK 293T IKZF2-mNeonGreen reporter, 24 hours incubation; for inhibition at 1 µM: HEK-293T, 24 h
T3 construct: Leu-Asp junction (codons ctcgac before the linker); mScarlet (behind P2A) (C, cleaved yes); expressed in transfected cells
T3 sequence (Q9UKS7 whole entry): as the sequence (Q9UKS7 whole entry) above
T3 sequence (Q96SW2 whole entry): as the sequence (Q96SW2 whole entry) above
T3 sequence (Q16531 whole entry partner): as the sequence (Q16531 whole entry partner) above
Text: as §1, §2, §3, §4, §5

IKZF3 (Aiolos) = molecular target: T4, IKZF3 (Aiolos) (Homo sapiens, UniProt Q9UKT9); assay: IKZF3 reporter degradation assay (HEK 293T IKZF3-mNeonGreen reporter cell line); format: cell-based; settings: HEK 293T IKZF3-mNeonGreen reporter, 24 hours incubation
T4 construct: Leu-Asp junction (codons ctcgac before the linker); mScarlet (behind P2A) (C, cleaved yes); expressed in transfected cells
T4 sequence (Q96SW2 whole entry partner): as the sequence (Q96SW2 whole entry) above
T4 sequence (Q16531 whole entry partner): as the sequence (Q16531 whole entry partner) above
T4 sequence (Q9UKT9 whole entry): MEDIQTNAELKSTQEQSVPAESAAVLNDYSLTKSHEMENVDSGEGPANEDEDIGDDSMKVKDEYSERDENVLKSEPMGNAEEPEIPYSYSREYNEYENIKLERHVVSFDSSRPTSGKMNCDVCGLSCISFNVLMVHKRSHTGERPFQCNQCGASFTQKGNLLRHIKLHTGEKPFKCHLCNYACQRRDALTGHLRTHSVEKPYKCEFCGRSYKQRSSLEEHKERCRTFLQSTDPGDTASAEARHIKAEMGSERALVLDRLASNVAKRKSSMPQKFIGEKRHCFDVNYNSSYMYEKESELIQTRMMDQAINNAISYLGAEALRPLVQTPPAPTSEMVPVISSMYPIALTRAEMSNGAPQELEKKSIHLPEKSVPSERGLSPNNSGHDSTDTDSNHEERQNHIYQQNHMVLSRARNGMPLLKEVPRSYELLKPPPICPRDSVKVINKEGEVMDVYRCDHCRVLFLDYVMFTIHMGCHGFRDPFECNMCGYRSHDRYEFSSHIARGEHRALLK
Text: as §1, §2, §3, §4, §5

Row | Compound | pEC50 [1] | DC50 (IKZF2 (Helios) [2]) [µM] | inhibition at 1 µM (IKZF2 (Helios) [3]) [%] | DC50 (IKZF3 (Aiolos)) [µM] | IKZF2 % Degradation @ 1 μM (IKZF2 (Helios) [3]) [%] | IKZF3 % Degradation @ 1 μM (IKZF3 (Aiolos); @ 1 μM) [%] | inhibition at 1 µM (IKZF3 (Aiolos); HEK-293T, 24 h, @ 1 μM) [%]
1 | O=C1CCC(N2Cc3cc(O[C@H]4CCCC[C@@H]4N4CC(c5ncc(C(F)(F)F)cn5)C4)ccc3C2=O)C(=O)N1 (single isomer, unassigned) [Compound 120-B] | 8.30 | 0.004 | 69.9 | > 30 | – | – | –
2 | O=C1CCC(N2Cc3cc(O[C@@H]4CCCC[C@H]4N4CC(c5ccc(C(F)(F)F)nc5)C4)ccc3C2=O)C(=O)N1 (single isomer, unassigned) [Compound 125-B] | 7.19 | 0.083 | 50.9 | > 30 | – | – | –
3 | O=C1CCC(N2Cc3cc(O[C@H]4CCCC[C@@H]4N4CC(c5ncc(Br)cn5)C4)ccc3C2=O)C(=O)N1 (single isomer, unassigned) [Compound 108-B] | 8.22 | 0.006 | 74.6 | > 30 | – | – | –
4 | O=C1CCC(N2Cc3cc(O[C@H]4CCCC[C@@H]4N4CC(c5ncc(C6CC6)cn5)C4)ccc3C2=O)C(=O)N1 (single isomer, unassigned) [Compound 134-B] | 8.30 | 0.005 | 70.4 | > 30 | – | – | –
5 | O=C1CCC(N2Cc3cc(O[C@H]4CCCC[C@H]4N4CC(c5cncc(Cl)c5)C4)ccc3C2=O)C(=O)N1 (single isomer, unassigned) [Compound 115-B] | 7.19 | 0.177 | 21.7 | – | – | – | –
6 | O=C1CCC(N2Cc3cc(O[C@H]4CCCC[C@@H]4N4CC(c5ccc6ccccc6n5)C4)ccc3C2=O)C(=O)N1 (single isomer, unassigned) [Compound 89-B] | 8.52 | 0.002 | 86.2 | > 30 | – | – | –
7 | CC(=O)N1CCC(C2CN([C@H]3CCCC[C@@H]3Oc3ccc4c(c3)CN(C3CCC(=O)NC3=O)C4=O)C2)CC1 (stereo partly drawn) [Compound 12-A, 3-(5-(((1S,2S)-2-(3-(1-acetylpiperidin-4-yl)azetidin-1-yl)cyclohexyl)oxy)-1-oxoisoindolin-2-yl)piperidine-2,6-dione] | 7.28 | 0.012 | 83.1 | > 30 | – | – | –
8 | O=C1CCC(N2Cc3cc(O[C@H]4CCCC[C@@H]4N4CC(c5ccc(Cl)cn5)C4)ccc3C2=O)C(=O)N1 (single isomer, unassigned) [Compound 99-B] | 8.40 | 0.006 | 81.3 | > 30 | – | – | –
9 | O=C1CCC(N2Cc3cc(O[C@@H]4CCCC[C@@H]4N4CC(c5ccc6ccccc6n5)C4)ccc3C2=O)C(=O)N1 (mixture of isomers) [Compound 146-B, Rac-3-(1-oxo-5-(((cis)-2-(3-(quinolin-2-yl)azetidin-1-yl)cyclohexyl)oxy)isoindolin-2-yl)piperidine-2,6-dione] | 7.92 | 0.007 | 74.9 | > 30 | – | – | –
10 | O=C1CCC(N2Cc3cc(O[C@H]4CCCC[C@@H]4N4CC(c5ccc(C(F)(F)F)nc5)C4)ccc3C2=O)C(=O)N1 (single isomer, unassigned) [Compound 127-B] | 7.59 | 0.006 | – | 0.0633 | 95.4 | 39 | –
11 | O=C1CCC(N2Cc3cc(O[C@@H]4CCCC[C@@H]4N4CC(c5ccncc5F)C4)ccc3C2=O)C(=O)N1 (mixture of isomers) [Compound 153-B, Rac-3-(5-(((cis)-2-(3-(3-fluoropyridin-4-yl)azetidin-1-yl)cyclohexyl)oxy)-1-oxoisoindolin-2-yl)piperidine-2,6-dione] | 7.49 | 0.016 | 73.4 | > 30 | – | – | –
12 | O=C1CCC(N2Cc3cc(O[C@H]4CCCC[C@@H]4N4CC(c5ccc(C(F)(F)F)cn5)C4)ccc3C2=O)C(=O)N1 (single isomer, unassigned) [Compound 130-B] | 8.00 | 0.005 | 94.8 | 0.0441 | – | – | 37.4
13 | O=C1CCC(N2Cc3cc(O[C@H]4CCCC[C@@H]4N4CC(c5ccnc6[nH]ccc56)C4)ccc3C2=O)C(=O)N1 (single isomer, unassigned) [Compound 113-B] | 7.52 | 0.062 | 29.7 | – | – | – | –
14 | O=C1CCC(N2Cc3cc(O[C@H]4CCCC[C@@H]4N4CC(c5ncncc5Cl)C4)ccc3C2=O)C(=O)N1 (mixture of isomers) [Compound 140-B, Rac-3-(5-(((trans)-2-(3-(5-chloropyrimidin-4-yl)azetidin-1-yl)cyclohexyl)oxy)-1-oxoisoindolin-2-yl)piperidine-2,6-dione] | 7.47 | > 30 | – | > 30 | – | – | –
15 | O=C1CCC(N2Cc3cc(O[C@H]4CCCC[C@H]4N4CC(c5ccc(Cl)cn5)C4)ccc3C2=O)C(=O)N1 (single isomer, unassigned) [Compound 98-B] | 7.26 | 0.111 | 41.3 | – | – | – | –
16 | O=C1CCC(N2Cc3cc(O[C@H]4CCCC[C@H]4N4CC(c5ccc6ccccc6n5)C4)ccc3C2=O)C(=O)N1 (stereo partly drawn) [Compound 88-B, 3-(1-oxo-5-(((1S,2R)-2-(3-(quinolin-2-yl)azetidin-1-yl)cyclohexyl)oxy)isoindolin-2-yl)piperidine-2,6-dione] | 8.00 | > 30 | – | > 30 | – | – | –
17 | O=C1CCC(N2Cc3cc(O[C@@H]4CCCC[C@H]4N4CC(c5ccc(C(F)(F)F)nc5)C4)ccc3C2=O)C(=O)N1 (single isomer, unassigned) [Compound 124-B] | 7.54 | > 30 | – | > 30 | – | – | –
